Measurements reported in publication doi:10.1101/2025.11.18.689095 (bioRxiv, 2025).
Where no end group is shown, it is not given here.

Legend:
Tom70:Orf9b complex [1] = type: binding, human Tom70; SARS-CoV-2 Orf9b
[2] = target: T1, human Tom70 (residues 108–608) (Homo sapiens, UniProt O94826); test: ITC, Hsp90 binding to free Tom70
T1 construct: human Tom70 (residues 108–608); Avi tag (N, cleaved yes); His6 tag (N, cleaved yes); (GGS)5 linker and TEV cleavage site (N, cleaved yes); made in house; host or cells: E. coli BL21 (DE3)
T1 sequence (O94826 108-608): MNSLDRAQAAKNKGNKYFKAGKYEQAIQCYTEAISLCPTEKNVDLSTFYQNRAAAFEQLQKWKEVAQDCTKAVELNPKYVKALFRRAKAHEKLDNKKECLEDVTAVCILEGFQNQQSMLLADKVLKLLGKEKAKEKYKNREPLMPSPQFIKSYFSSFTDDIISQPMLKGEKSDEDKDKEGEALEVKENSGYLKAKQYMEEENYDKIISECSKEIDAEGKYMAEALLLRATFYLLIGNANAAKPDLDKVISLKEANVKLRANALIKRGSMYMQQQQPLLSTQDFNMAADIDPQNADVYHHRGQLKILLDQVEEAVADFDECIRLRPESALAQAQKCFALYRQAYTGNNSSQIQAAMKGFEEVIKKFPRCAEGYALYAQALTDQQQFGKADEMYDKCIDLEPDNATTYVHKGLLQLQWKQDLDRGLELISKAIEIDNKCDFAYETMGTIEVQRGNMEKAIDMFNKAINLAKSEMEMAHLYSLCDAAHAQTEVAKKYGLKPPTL
Experimental: (§1) All ITC experiments were recorded at 20°C using a Microcal-PEAQ-ITC calorimeter (Malvern Panalytical). Experiments involving full-length Hsp90 or the Hsp90EEVD peptide were carried out in buffer containing 20 mM sodium phosphate (pH 8), 150 mM NaCl, 2 mM TCEP, and 10% glycerol. 10% glycerol was required to prevent precipitation of Hsp90 during titration.
(§2) Unbound Orf9bHelix was removed via multiple rounds of concentration and buffer exchange on a concentrator (Vivaspin 20, Satorius). Orf9b truncation mutant complexes were produced in the same way. Experiments involving the binding of Orf9bHelix titrated into Tom70 were carried out in buffer containing 20 mM sodium phosphate (pH 7), 100 mM NaCl, and 2 mM TCEP. Orf9bHelix (120 μM) was titrated into 15 μM Tom70 or Tom70:Hsp90EEVD complex (15 μM Tom70: 400 μM Hsp90EEVD).
(§3) All data was fit using a 1:1 binding model to obtain the reported thermodynamic parameters using the software provided by the instrument. Reported parameters are the average and standard deviation of individual runs of the experiment, as outlined in supplementary information (Figs S3 and S9).

Tom70:Orf9bHelix complex [3] = target: T2, Tom70:Orf9bHelix complex (Homo sapiens, UniProt O94826); type: binding, human Tom70; SARS-CoV-2 Orf9b; settings: pH 8
T2 construct: human Tom70 (residues 108–608); Avi tag (N, cleaved yes); His6 tag (N, cleaved yes); (GGS)5 linker and TEV cleavage site (N, cleaved yes); host or cells: E. coli BL21 (DE3) for Tom70; synthetic peptide
T2 sequence (P0DTD2 44-77 partner limits assumed, one chain of several): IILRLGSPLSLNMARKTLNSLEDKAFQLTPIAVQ

Tom70:Orf9b complex [4] = target: Tom70:Orf9b complex; parameters: species or system human Tom70; SARS-CoV-2 Orf9b; settings: read-out: binding affinity (KD) of full-length Hsp90 to Tom70:Orf9b complex; pH 8
Tom70 = test: BLI kinetics, Hsp90 with free Tom70; type: binding, human
Experimental: We therefore indirectly estimated kon values by combining koff values obtained from BLI with KD values determined by ITC, i.e., kon=koffBLI/KDITC .
Biotinylated Hsp90 proteins were immobilized onto streptavidin biosensor probes, and experiments were conducted in buffer containing 20 mM sodium phosphate (pH 7), 150 mM NaCl, 1% BSA, 0.6 M sucrose, and 1 mM TCEP[68]. […] To combat heterogenous binding, dissociation curves were fit with a two-phase exponential curve. Due to the association rate (kon) being too rapid to quantify, kon values were indirectly estimated by combining koff values obtained from BLI with KD values determined by ITC ( kon=koffBLI/KDITC ). All data are corrected for non-specific binding. Error is given as the standard deviation of at least two measurements.

[5] = target: T1, human Tom70 (residues 108–608); test: ITC, Hsp90EEVD peptide binding to free Tom70; settings: 20°C, pH 8, 150 mM NaCl, 2 mM TCEP, 10% glycerol, Hsp90EEVD (400–500 μM) into Tom70 (30 μM), mean ± SD of 3 measurements, read-out: KD of Hsp90EEVD to Tom70 alone
Experimental: as §1, §2, §3

Tom70:Orf9bHelix complex [6] = target: T2, Tom70:Orf9bHelix complex; test: biochemical; type: binding, human Tom70; SARS-CoV-2 Orf9b

In the case of “Hsp90: human Hsp90α (residues 1–732), expressed in E. coli”, the “kon for Hsp90 binding to Tom70 in presence of bound full-length Orf9b” value (Tom70:Orf9b complex [1]) is reported as 20000 ± 10000 M⁻¹ s⁻¹, the Kd ([2]; 20°C, 20 mM sodium phosphate pH 8, 150 mM NaCl, 2 mM TCEP, 10% glycerol, Tom70 (400 μM) into Hsp90 (20 μM), 1:1 model, mean ± SD of 3 measurements, read-out: binding affinity (KD) of full-length Hsp90 to free Tom70) is reported as 3 ± 1 µM and the “thermodynamic signature of binding to free Tom70” value ([2]; 20°C, pH 8, Fig 5C) is reported as “a favorable entropy change was the major driving force”. For the same substance, the “affinity of full-length Hsp90 to free Tom70 relative to Hsp90EEVD peptide” value ([2]; higher affinity than the Hsp90EEVD peptide) was 4 fold, the “thermodynamic signature of binding to Tom70-Orf9bHelix complex” value (Tom70:Orf9bHelix complex [3]) was “driven entirely by a favorable enthalpy change” and the Kd (Tom70:Orf9b complex [4]) was 22 ± 1 µM. The “association rate of Hsp90 to free Tom70 (BLI, direct)” value (Tom70; BLI, 25°C, pH 7, 150 mM NaCl, 1% BSA, 0.6 M sucrose, 1 mM TCEP, Hsp90 immobilized) was “too rapid to quantify accurately” and the “kon for Hsp90 binding to free Tom70” value (Tom70; indirectly estimated, kon = koff(BLI)/KD(ITC), BLI 25°C pH 7, ITC 20°C pH 8, SD of at least two measurements) was 500000 ± 200000 M⁻¹ s⁻¹.

YDTSRMEEVD [Hsp90EEVD] was tested, and the Kd [5] was 12 ± 1 µM and the Kd (Tom70:Orf9bHelix complex [6]) was 12 ± 1 µM.
